pIC50: −log10 of the molar value.
Tests used:
[1] = molecular target: T1, DNA (cytosine-5)-methyltransferase 1 (Homo sapiens, UniProt P26358); experiment: Inhibition of DNMT1 (unknown origin) using SAM as substrate at 1 uM by fluorescence assay relative to control
[2] = molecular target: T2, Histone deacetylase 1 (Homo sapiens, UniProt Q13547); experiment: Inhibition of HDAC1 (unknown origin) using Boc-Lys(Ac)-AMC or Boc-Lys(Tfa)-AMC as substrate incubated for 1 hr by fluorescence based analysis
[3] = molecular target: T3, Protein deacetylase HDAC6 (Homo sapiens, UniProt Q9UBN7); experiment: Inhibition of HDAC6 (unknown origin) using expressed in Sf9 cells using Boc-Lys(acetyI)-AMC as substrate preincubated for 1 hr followed by substrate addition and measured after 30 mins by fluorescence based analysis
T3 sequence (Q9UBN7 whole entry): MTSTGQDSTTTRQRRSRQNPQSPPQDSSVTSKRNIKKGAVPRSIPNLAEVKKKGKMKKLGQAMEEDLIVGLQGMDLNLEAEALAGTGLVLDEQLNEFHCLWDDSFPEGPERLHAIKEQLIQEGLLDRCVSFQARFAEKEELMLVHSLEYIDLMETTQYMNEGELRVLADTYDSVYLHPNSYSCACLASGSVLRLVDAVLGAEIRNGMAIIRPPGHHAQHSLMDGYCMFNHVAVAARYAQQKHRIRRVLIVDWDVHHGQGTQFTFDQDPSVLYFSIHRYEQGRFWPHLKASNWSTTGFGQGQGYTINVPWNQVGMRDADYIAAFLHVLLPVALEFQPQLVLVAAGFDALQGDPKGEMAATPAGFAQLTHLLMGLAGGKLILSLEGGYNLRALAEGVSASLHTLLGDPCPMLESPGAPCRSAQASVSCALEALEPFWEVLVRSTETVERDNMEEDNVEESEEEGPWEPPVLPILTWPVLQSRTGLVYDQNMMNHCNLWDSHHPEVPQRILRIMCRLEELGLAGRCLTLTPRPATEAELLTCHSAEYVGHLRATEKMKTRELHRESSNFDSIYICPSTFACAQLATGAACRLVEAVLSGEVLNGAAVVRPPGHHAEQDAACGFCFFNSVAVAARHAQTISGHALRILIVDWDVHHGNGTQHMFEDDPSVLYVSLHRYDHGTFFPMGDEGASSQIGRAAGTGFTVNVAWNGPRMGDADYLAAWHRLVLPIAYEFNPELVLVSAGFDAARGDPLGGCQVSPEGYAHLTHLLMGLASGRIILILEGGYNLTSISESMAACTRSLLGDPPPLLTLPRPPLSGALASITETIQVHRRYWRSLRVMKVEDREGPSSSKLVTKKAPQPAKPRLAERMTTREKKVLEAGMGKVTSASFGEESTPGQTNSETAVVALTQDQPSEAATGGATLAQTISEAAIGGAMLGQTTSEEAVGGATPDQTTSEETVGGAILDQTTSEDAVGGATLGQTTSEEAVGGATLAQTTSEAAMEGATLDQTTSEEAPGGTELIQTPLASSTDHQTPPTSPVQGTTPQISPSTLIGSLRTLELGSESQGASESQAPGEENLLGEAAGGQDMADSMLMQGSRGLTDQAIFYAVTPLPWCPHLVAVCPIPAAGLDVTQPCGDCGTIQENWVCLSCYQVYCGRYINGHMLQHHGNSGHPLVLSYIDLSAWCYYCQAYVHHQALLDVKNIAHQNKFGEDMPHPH

[4] = tested on: U-937; experiment: Antiproliferative activity against human U-937 cells assessed as reduction in cell growth incubated for 72 hrs by MTT assay; assay type: functional, cell-based; settings: U-937, 72 h
[5] = tested on: K562; experiment: Antiproliferative activity against human K562 cells assessed as reduction in cell viability by MTT assay; assay type: functional, cell-based
[6] = tested on: MCF7; experiment: Antiproliferative activity against human MCF7 cells assessed as reduction in cell growth incubated for 72 hrs by MTT assay; assay type: functional, cell-based; settings: MCF7, 72 h
[7] = tested on: HeLa; experiment: Antiproliferative activity against human HeLa cells assessed as reduction in cell viability by MTT assay; assay type: functional, cell-based
[8] = Cytotoxicity against human HEK293T cells assessed as cell growth inhibition by MTT assay; assay type: toxicity, cell-based, HEK-293T
[9] = tested on: A549; experiment: Antiproliferative activity against human A549 cells assessed as reduction in cell viability measured after 48 hrs by MTT assay; assay type: functional, cell-based; settings: A549, 48 h
[10] = Antiproliferative activity against human SCCIC1 cells assessed as cell growth inhibition measured after 72 hrs; assay type: functional, cell-based; settings: SCCIC1, 72 h
[11] = Inhibition of HDAC1 ([…] residues) (unknown origin) FLAG-tagged CoREST1 (unknown origin) transfected in HEK293F cells using fluorogenic p53 (RHKK(Ac)AMC) as substrate preincubated for 30 mins followed by substrate addition and measured after 15 mins by fluorescence based analysis; parameters: species or system Homo sapiens
[12] = Antiproliferative activity against human WM983B cells assessed as reduction in cell growth incubated for 72 hrs by MTT assay; assay type: functional, cell-based
[13] = tested on: SK-MEL-5; experiment: Antiproliferative activity against human SK-MEL-5 cells assessed as reduction in cell viability incubated for 72 hrs by MTT assay; assay type: functional, cell-based; settings: SK-MEL-5, 72 h
[14] = Antiproliferative activity against human MET-1 cells assessed as reduction in cell viability incubated for 72 hrs by MTT assay; assay type: functional, cell-based; settings: MET-1, 72 h
[15] = molecular target: T4, Bromodomain-containing protein 3 (Homo sapiens, UniProt Q15059); experiment: Inhibition of BRD3 BD2 (unknown origin) incubated for 180 min by TR-FRET assay
[16] = molecular target: T3, Protein deacetylase HDAC6; experiment: Inhibition of HDAC6 (unknown origin) by fluorescence based assay
[17] = molecular target: T5, Bromodomain-containing protein 2 (Homo sapiens, UniProt P25440); experiment: Inhibition of recombinant BRD2 BD1 (unknown origin) incubated for 120 mins by TR-FRET assay
[18] = molecular target: Histone deacetylase 3 (Homo sapiens, UniProt O15379); experiment: Inhibition of HDAC3 (unknown origin) using biotinylated histone H3 KAc peptide (1 to 21 residues) as substrate by HTRF assay
[19] = molecular target: T5, Bromodomain-containing protein 2; experiment: Inhibition of BRD2 BD2 (unknown origin) incubated for 180 min by TR-FRET assay
[20] = molecular target: T4, Bromodomain-containing protein 3; experiment: Inhibition of recombinant BRD3 BD1 (unknown origin) incubated for 120 mins by TR-FRET assay
[21] = molecular target: Bromodomain testis-specific protein (Homo sapiens, UniProt Q58F21); experiment: Inhibition of BRDT BD2 (unknown origin) by TR-FRET assay
[22] = molecular target: Histone deacetylase 8 (Homo sapiens, UniProt Q9BY41); experiment: Inhibition of HDAC8 (unknown origin) using Fluoro-Substrate Peptide as substrate by fluorescence assay
[23] = molecular target: T6, Histone deacetylase 2 (Homo sapiens, UniProt Q92769); experiment: Inhibition of HDAC2 (unknown origin) by fluorescence based analysis
[24] = molecular target: T3, Protein deacetylase HDAC6; experiment: Inhibition of HDAC6 (unknown origin) using Ac-peptide as substrate preincubated for 15 mins followed by substrate addition and measured after 1 hr by HTRF analysis
[25] = tested on: MDA-MB-231; experiment: Antiproliferative activity against human MDA-MB-231 cells assessed as reduction in cell growth by MTT assay; assay type: functional, cell-based
[26] = tested on: MCF7; experiment: Antiproliferative activity against human MCF7 cells assessed as reduction in cell growth by MTT assay; assay type: functional, cell-based
[27] = molecular target: T1, DNA (cytosine-5)-methyltransferase 1; experiment: Inhibition of DNMT1 (unknown origin)
[28] = molecular target: T2, Histone deacetylase 1; experiment: Inhibition of HDAC1 (unknown origin) using ArgHisLysLys(Ac) as substrate by fluorescence based analysis
[29] = tested on: A549; experiment: Antiproliferative activity against human A549 cells assessed as reduction in cell growth by MTT assay; assay type: functional, cell-based
[30] = molecular target: DNMT3A2/3L complex (Homo sapiens, UniProt Q9Y6K1); experiment: Inhibition of DNMT3A/DNMT3L (unknown origin); assay type: protein-complex assay
[31] = molecular target: DNMT3B-DNMT3L complex (Homo sapiens, UniProt Q9UBC3); experiment: Inhibition of DNMT3B/3L (unknown origin); assay type: protein-complex assay
[32] = tested on: U-937; experiment: Antiproliferative activity against human U-937 cells assessed as inhibition of cell growth at 3 uM measured after 72 hrs by CellTiter-Glo luminescent cell viability assay relative to control; assay type: functional
[33] = molecular target: T6, Histone deacetylase 2; experiment: Inhibition of human recombinant HDAC2 in HeLa cells using Boc-Lys(Ac)-AMC or Boc-Lys(Tfa)-AMC as fluorogenic substrate preincubated for 10 mins followed by substrate addition and measured after 1 hr by fluorescence based analysis; assay type: cell-based
[34] = molecular target: Histone deacetylase; experiment: Inhibition of human recombinant HDAC in HeLa cells using Boc-Lys(Ac)-AMC or Boc-Lys(Tfa)-AMC as fluorogenic substrate preincubated for 10 mins followed by substrate addition and measured after 1 hr by fluorescence based analysis; assay type: cell-based
[35] = molecular target: T3, Protein deacetylase HDAC6; experiment: Inhibition of human recombinant HDAC6 in HeLa cells using Boc-Lys(Ac)-AMC or Boc-Lys(Tfa)-AMC as fluorogenic substrate preincubated for 10 mins followed by substrate addition and measured after 1 hr by fluorescence based analysis; assay type: cell-based
[36] = tested on: D283 Med; experiment: Antiproliferative activity against human D283 Med cells assessed as inhibition of cell growth measured after 72 hrs by CellTiter-Glo assay; assay type: functional, cell-based
[37] = tested on: NCI-H460; experiment: Antiproliferative activity against human NCI-H460 cells assessed as reduction in cell growth measured after 72 hrs by MTT assay; assay type: functional, cell-based; settings: NCI-H460, 72 h
[38] = tested on: MEF; experiment: Antiproliferative activity against mouse MEF cells assessed as cell growth inhibition measured after 48 hrs by MTT assay; assay type: functional, cell-based
[39] = Cytotoxicity against human CLL cells assessed as reduction in cell viability at 5 uM relative to control; assay type: toxicity, cell-based

T4 sequence (Q15059 whole entry): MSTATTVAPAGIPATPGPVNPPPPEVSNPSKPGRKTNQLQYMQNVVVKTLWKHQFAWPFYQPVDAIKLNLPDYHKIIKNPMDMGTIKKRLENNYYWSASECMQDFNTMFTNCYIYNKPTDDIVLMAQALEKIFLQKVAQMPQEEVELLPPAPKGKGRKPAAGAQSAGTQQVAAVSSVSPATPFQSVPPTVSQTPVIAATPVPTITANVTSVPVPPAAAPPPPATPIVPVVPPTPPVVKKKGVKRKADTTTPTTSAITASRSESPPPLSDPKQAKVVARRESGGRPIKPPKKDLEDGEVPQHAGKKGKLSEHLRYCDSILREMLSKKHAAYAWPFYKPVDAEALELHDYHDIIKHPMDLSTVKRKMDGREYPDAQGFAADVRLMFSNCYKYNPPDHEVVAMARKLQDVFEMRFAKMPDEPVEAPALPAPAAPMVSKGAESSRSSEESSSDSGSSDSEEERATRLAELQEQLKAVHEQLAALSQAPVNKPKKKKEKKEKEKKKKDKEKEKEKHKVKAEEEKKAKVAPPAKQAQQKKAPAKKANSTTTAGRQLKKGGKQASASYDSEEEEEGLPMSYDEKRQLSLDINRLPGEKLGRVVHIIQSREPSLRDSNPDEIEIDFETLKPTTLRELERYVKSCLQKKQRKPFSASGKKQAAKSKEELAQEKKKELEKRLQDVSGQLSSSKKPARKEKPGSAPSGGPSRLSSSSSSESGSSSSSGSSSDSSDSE
T1 sequence (P26358 whole entry): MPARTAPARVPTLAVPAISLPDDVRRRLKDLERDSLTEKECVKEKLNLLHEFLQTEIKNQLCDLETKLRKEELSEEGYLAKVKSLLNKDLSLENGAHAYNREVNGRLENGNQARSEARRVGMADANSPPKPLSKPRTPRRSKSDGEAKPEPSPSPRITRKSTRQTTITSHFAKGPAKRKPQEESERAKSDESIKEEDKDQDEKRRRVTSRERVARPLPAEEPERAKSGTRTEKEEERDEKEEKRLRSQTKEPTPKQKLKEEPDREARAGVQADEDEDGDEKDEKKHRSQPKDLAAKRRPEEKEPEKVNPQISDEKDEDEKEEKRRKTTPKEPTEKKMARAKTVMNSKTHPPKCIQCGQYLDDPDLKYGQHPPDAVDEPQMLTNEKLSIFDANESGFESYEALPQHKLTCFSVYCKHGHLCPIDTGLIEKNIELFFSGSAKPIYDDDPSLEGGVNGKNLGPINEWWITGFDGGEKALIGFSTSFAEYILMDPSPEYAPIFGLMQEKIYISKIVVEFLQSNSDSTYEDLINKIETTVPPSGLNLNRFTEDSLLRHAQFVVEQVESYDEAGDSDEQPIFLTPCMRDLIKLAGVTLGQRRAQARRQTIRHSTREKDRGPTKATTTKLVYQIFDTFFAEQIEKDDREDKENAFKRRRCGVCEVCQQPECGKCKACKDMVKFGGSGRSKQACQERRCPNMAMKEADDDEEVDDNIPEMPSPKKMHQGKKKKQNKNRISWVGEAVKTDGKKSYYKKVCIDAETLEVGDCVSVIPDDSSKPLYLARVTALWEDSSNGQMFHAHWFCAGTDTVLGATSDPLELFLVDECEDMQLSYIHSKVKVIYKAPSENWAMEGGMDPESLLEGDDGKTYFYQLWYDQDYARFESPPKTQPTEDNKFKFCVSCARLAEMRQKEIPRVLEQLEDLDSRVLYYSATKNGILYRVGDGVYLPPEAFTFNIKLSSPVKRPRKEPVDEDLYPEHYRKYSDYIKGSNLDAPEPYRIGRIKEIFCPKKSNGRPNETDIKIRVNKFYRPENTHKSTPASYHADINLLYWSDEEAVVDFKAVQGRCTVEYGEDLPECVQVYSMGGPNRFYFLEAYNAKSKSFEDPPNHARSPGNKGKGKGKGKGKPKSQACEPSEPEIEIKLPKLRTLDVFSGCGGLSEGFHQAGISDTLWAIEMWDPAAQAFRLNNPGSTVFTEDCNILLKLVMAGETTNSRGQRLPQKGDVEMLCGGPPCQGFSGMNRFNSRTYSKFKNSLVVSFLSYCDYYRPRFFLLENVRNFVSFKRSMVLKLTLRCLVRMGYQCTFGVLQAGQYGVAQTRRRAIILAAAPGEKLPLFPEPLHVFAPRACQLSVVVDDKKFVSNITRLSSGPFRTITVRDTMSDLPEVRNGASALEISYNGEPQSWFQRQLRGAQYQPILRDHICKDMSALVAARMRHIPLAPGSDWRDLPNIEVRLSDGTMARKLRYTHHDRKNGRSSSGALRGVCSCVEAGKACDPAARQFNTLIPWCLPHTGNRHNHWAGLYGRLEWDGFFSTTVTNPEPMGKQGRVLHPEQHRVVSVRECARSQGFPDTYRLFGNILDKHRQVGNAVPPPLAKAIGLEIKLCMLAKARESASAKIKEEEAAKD
T6 sequence (Q92769 whole entry): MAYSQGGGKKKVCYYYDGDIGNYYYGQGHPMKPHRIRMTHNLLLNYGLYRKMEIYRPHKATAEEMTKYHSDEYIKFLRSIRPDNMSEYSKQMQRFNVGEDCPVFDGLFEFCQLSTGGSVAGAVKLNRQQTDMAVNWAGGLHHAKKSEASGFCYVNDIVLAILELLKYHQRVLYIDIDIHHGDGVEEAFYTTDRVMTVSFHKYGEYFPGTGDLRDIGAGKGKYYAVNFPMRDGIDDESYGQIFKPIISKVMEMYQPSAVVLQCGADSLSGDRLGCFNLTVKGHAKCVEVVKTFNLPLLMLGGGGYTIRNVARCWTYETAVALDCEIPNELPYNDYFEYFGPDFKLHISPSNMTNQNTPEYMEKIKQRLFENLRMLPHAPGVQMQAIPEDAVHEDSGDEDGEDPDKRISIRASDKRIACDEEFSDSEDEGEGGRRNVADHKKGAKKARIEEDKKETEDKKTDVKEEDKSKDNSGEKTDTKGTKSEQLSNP
T5 sequence (P25440 whole entry, the tested form may be a part): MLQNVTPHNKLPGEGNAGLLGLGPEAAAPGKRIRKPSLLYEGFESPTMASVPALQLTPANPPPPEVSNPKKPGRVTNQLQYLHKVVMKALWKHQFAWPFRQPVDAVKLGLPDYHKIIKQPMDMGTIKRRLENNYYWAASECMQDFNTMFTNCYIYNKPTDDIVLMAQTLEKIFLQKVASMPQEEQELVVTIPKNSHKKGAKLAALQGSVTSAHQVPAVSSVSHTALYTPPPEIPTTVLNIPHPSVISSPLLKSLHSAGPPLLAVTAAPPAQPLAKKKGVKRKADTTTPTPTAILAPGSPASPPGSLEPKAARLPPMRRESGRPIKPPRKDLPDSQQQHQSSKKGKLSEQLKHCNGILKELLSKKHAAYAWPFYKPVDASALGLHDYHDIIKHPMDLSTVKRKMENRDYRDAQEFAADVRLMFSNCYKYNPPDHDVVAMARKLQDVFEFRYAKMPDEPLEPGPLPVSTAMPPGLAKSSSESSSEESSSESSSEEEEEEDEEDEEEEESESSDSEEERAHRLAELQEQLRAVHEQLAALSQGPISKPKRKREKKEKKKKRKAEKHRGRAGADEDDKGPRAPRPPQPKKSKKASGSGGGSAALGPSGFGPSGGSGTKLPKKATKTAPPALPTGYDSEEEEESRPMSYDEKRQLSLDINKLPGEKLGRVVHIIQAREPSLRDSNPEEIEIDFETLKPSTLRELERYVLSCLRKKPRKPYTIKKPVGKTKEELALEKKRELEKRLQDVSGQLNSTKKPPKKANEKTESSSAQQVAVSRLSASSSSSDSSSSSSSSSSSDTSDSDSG
T2 sequence (Q13547 whole entry): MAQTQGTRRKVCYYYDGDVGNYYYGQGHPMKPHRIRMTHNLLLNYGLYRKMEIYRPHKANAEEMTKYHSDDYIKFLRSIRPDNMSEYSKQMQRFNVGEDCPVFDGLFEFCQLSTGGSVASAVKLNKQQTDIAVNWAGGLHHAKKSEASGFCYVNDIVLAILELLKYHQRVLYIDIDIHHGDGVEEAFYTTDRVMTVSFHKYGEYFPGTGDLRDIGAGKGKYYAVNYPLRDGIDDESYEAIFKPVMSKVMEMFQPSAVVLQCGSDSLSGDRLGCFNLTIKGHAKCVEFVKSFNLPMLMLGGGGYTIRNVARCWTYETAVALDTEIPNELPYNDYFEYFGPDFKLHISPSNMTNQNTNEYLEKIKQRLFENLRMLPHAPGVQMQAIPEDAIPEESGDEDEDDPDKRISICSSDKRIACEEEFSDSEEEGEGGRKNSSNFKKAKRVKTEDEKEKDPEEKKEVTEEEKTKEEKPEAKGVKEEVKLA
Sequence of DNMT3A2/3L complex (Q9Y6K1 whole entry, looked up, one chain of several): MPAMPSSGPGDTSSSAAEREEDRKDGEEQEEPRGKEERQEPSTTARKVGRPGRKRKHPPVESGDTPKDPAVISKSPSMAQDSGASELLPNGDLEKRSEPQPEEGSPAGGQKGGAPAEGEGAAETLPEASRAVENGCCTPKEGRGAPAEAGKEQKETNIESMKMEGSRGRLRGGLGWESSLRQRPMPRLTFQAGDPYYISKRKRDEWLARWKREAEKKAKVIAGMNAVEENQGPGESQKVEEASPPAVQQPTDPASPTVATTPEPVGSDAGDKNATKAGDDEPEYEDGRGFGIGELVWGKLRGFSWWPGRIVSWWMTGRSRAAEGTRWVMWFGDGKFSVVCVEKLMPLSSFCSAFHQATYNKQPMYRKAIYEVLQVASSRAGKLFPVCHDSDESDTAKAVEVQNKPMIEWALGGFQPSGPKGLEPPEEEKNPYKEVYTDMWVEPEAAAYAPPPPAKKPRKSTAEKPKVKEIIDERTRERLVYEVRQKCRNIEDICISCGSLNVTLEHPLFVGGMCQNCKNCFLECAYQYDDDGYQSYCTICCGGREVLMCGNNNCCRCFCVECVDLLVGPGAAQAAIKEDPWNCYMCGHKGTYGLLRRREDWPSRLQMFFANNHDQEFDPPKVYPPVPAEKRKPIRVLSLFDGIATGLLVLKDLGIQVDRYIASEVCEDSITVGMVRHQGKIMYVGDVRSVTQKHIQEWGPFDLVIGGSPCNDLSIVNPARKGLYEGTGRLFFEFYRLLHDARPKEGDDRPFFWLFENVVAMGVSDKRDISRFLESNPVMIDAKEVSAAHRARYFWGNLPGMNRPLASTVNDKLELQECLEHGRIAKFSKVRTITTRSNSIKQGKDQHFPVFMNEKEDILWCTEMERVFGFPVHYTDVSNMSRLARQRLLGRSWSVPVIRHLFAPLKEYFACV

SMILES: Nc1ncnc2c1ncn2Cc1ccc(-c2cn(CCCCCCC(=O)NO)nn2)cc1
- inhibition [1]: 44.5%
- pIC50 [2]: 8.62
- pIC50 [3]: 8.32
- pIC50 [4]: 5.89

SMILES: COc1ccc2c(NC3CCN(Cc4ccccc4)CC3)nc(NCCNC(=O)CCCCC(=O)NO)nc2c1
- pIC50 [5]: 5.24
- pIC50 [6]: 4.43
- pIC50 [7]: 4.81
- pIC50 [8]: 4.70
- pIC50 [9]: 4.44

SMILES: Nc1ccccc1NC(=O)c1ccc(CCCC(=O)Nc2ccc(C3CC3N)cc2)cc1 (centres undefined)
- pIC50 [10]: 7.39
- pIC50 [11]: 6.69
- pIC50 [12]: 6.70
- pIC50 [13]: 6.89
- pIC50 [14]: 8.22

SMILES: Cc1sc2c(c1C)C(c1ccc(Cl)cc1)=N[C@@H](CC(=O)Nc1ccc(C(=O)NO)cc1)c1nnc(C)n1-2
- pIC50 [15]: 7.42
- pIC50 [16]: 7.47
- pIC50 [17]: 6.50
- pIC50 [18]: 7.41
- pIC50 [19]: 7.11
- pIC50 [20]: 6.88
- pIC50 [21]: 4.49
- pIC50 [22]: 6.72
- pIC50 [23]: 7.28

SMILES: O=C(NO)C1CCN(C[C@@H](O)COC(Cn2c3ccccc3c3ccccc32)Cn2c3ccccc3c3ccccc32)CC1
- pIC50 [24]: < 4.00
- pIC50 [25]: 5.33
- pIC50 [26]: 5.73
- pIC50 [27]: 5.69
- pIC50 [28]: 5.38
- pIC50 [29]: 5.41
- pIC50 [30]: 6.03
- pIC50 [31]: 5.88

SMILES: Cc1sc2c(c1C)C(c1ccc(Cl)cc1)=N[C@@H](CC(=O)NCCCC(=O)Nc1ccccc1N)c1nnc(C)n1-2
- inhibition at 3 µM [32]: 84%

SMILES: Cc1noc(C)c1-c1ccc2c(c1)c(Cc1ccc(F)cc1)cn2CCCCCCC(=O)NO
- pIC50 [33]: 7.54
- IC50 [34]: 0.291 µM
- pIC50 [35]: < 6.00

SMILES: Cn1cc(-c2ccc(S(=O)(=O)n3ccc(/C=C/C(=O)Nc4ccccc4N)c3)cc2)cn1 [DOMATINOSTAT]
- pIC50 [36]: 6.82

SMILES: Cn1c(CCCCCCC(=O)NO)nc2cc(N(CCCl)CCCl)ccc21 [TINOSTAMUSTINE]
- pIC50 [37]: 5.66
- pIC50 [38]: 5.24
- Activity [39]: ~ 100 nM

From ChEMBL document CHEMBL5532653, “Dual inhibitors of HDAC and other epigenetic regulators: A novel strategy for cancer treatment” (Eur J Med Chem, 2024)
